Data set [1] relates to type 1 dehydratase from P. asaccharolyticus. As to conditions: cited from earlier work.
In data set [2] the test system is type 2 dehydratase from E. coli. As to conditions: cited from earlier work.
In data set [3] the test system is N[C@@H](CO)C(=O)O. In words: purified protein, by the assay type.

This passage reports type of inhibition and kcat/Km results from paper PMC4263429 (Biochemistry, 2014).

As to `N[C@@H](CS)C(=O)O` [L-cysteine], the results for the type of inhibition result in data set [1] and in data set [2] were “competitive inhibitor” and “competitive inhibitors”, respectively.

`N[C@H](CO)C(=O)O` [D-serine]: in data set [2], the type of inhibition result is “competitive inhibitors”.

In the case of (Legionella pneumophila str. Lens), the kcat/Km – broadly, the second-order rate constant that governs catalysis at low substrate concentration – in data set [3] was 165000 ± 8000 M⁻¹ s⁻¹.
